The compounds below were run on HBsAg (assay: HBsAg assay (chemiluminescence immunoassay of secreted HBsAg)). Settings: HBsAg secretion, HepG2.2.15 cells, CLIA of culture supernatant.
Type: cell-based, HBV
Summary of the method: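 HepG2.2.15 cells, in duplicate, treated with three-fold serial compound dilutions (1% DMSO final); secreted HBsAg in supernatant quantified by chemiluminescence immunoassay; IC50 is the concentration reducing HBsAg secretion by 50% versus the DMSO control.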

SMILES | IC50 [nM]
CC1c2cnc(-c3ncccn3)nc2CCN1c1cc(N2CCN(S(C)(=O)=O)CC2)cc(F)n1 (single isomer, unassigned) [Example 98, (+)-6-[6-Fluoro-4-(4-methylsulfonylpiperazin-1-yl)-2-pyridyl]-5-methyl-2-pyrimidin-2-yl-7,8-dihydro-5H-pyrido[4,3-d]pyrimidine] | 410

Same assay, conditions: Hepatitis B virus, HepG2.2.15, HBsAg secretion, HepG2.2.15 cells, CLIA of culture supernatant

SMILES | IC50 [nM]
CC(=O)N1CCN(c2cc(F)nc(N3CCc4nc(-c5ncccn5)ncc4C3C)c2)C(=O)C1 (centres unmarked) [Example 127, 4-Acetyl-1-[2-fluoro-6-(5-methyl-2-pyrimidin-2-yl-7,8-dihydro-5H-pyrido[4,3-d]pyrimidin-6-yl)-4-pyridyl]piperazin-2-one] | 494
CC1c2cnc(-c3ncccn3)nc2CCN1c1cc(F)cc(N2C3CCC2COC3)n1 (centres unmarked) [Example 11, 8-[4-fluoro-6-(5-methyl-2-pyrimidin-2-yl-7,8-dihydro-5H-pyrido[4,3-d]pyrimidin-6-yl)-2-pyridyl]-3-oxa-8-azabicyclo[3.2.1]octane] | 188
CC1c2cnc(-c3ncccn3)nc2CCN1c1cc(F)cc(N2CCC(C(=O)O)CC2)n1 (centres unmarked) [Example 51, 1-[4-fluoro-6-(5-methyl-2-pyrimidin-2-yl-7,8-dihydro-5H-pyrido[4,3-d]pyrimidin-6-yl)-2-pyridyl]piperidine-4-carboxylic acid] | 346
COC1CN(c2cc(F)cc(N3CCc4nc(-c5ncccn5)ncc4C3C)n2)C1 (centres unmarked) [Example 111, 6-[4-fluoro-6-(3-methoxyazetidin-1-yl)-2-pyridyl]-5-methyl-2-pyrimidin-2-yl-7,8-dihydro-5H-pyrido[4,3-d]pyrimidine] | 26
CC1c2cnc(-c3ncccn3)nc2CCN1c1cc(N2CCC(O)C2)cc(F)n1 (centres unmarked) [Example 36, 1-[2-fluoro-6-(5-methyl-2-pyrimidin-2-yl-7,8-dihydro-5H-pyrido[4,3-d]pyrimidin-6-yl)-4-pyridyl]pyrrolidin-3-ol] | 12
CC1c2cnc(-c3ncccn3)nc2CCN1c1cc(F)nc(N2CCC2)c1 (centres unmarked) [Example 147, 6-[2-(Azetidin-1-yl)-6-fluoro-4-pyridyl]-5-methyl-2-pyrimidin-2-yl-7,8-dihydro-5H-pyrido[4,3-d]pyrimidine] | 18
CC1c2cnc(-c3ncccn3)nc2CCN1c1cc(N2CCOC(C(N)=O)C2)cc(F)n1 (centres unmarked) [Example 46, 4-[2-Fluoro-6-(5-methyl-2-pyrimidin-2-yl-7,8-dihydro-5H-pyrido[4,3-d]pyrimidin-6-yl)-4-pyridyl]morpholine-2-carboxamide] | 36
CC1c2cnc(-c3ncccn3)nc2CCN1c1cc(F)cc(N2CCC(F)(F)C2)n1 (centres unmarked) [Example 23, 6-[6-(3,3-difluoropyrrolidin-1-yl)-4-fluoro-2-pyridyl]-5-methyl-2-pyrimidin-2-yl-7,8-dihydro-5H-pyrido[4,3-d]pyrimidine] | 5
CC1c2cnc(-c3ccccn3)nc2CCN1c1cc(NCC(F)F)cc(F)n1 (centres unmarked) [Example 79] | 71
COCCS(=O)(=O)N1CCN(c2cc(F)nc(N3CCc4nc(-c5ncccn5)ncc4C3C)c2)CC1 (centres unmarked) [Example 87, 6-[6-fluoro-4-[4-(2-methoxyethylsulfonyl)piperazin-1-yl]-2-pyridyl]-5-methyl-2-pyrimidin-2-yl-7,8-dihydro-5H-pyrido[4,3-d]pyrimidine] | 5
CC1c2cnc(-c3ncccn3)nc2CCN1c1cc(N2CC(CO)C2)cc(F)n1 (centres unmarked) [Example 135, [1-[2-fluoro-6-(5-methyl-2-pyrimidin-2-yl-7,8-dihydro-5H-pyrido[4,3-d]pyrimidin-6-yl)-4-pyridyl]azetidin-3-yl]methanol] | 8
CC1c2cnc(-c3ccccn3)nc2CCN1c1cc(N2CCC(C(N)=O)CC2)cc(F)n1 (centres unmarked) [Example 73, 1-[2-fluoro-6-[5-methyl-2-(2-pyridyl)-7,8-dihydro-5H-pyrido[4,3-d]pyrimidin-6-yl]-4-pyridyl]piperidine-4-carboxamide] | 10
CC1c2cnc(-c3ncccn3)nc2CCN1c1cc(NC2CCOCC2)cc(F)n1 (centres unmarked) [Example 48, 2-fluoro-6-(5-methyl-2-pyrimidin-2-yl-7,8-dihydro-5H-pyrido[4,3-d]pyrimidin-6-yl)-N-tetrahydropyran-4-yl-pyridin-4-amine] | 55
CC1c2cnc(-c3ncccn3)nc2CCN1c1cc(N2CCN(CC(=O)O)CC2)cc(F)n1 (centres unmarked) [Example 94, 2-[4-[2-fluoro-6-(5-methyl-2-pyrimidin-2-yl-7,8-dihydro-5H-pyrido[4,3-d]pyrimidin-6-yl)-4-pyridyl]piperazin-1-yl]acetic acid] | 8860
CC1c2cnc(-c3ncccn3)nc2CCN1c1cc(N(C)C(=O)C2CC2)cc(F)n1 (centres unmarked) [Example 156, N-[2-Fluoro-6-(5-methyl-2-pyrimidin-2-yl-7,8-dihydro-5H-pyrido[4,3-d]pyrimidin-6-yl)-4-pyridyl]-N-methyl-cyclopropanecarboxamide] | 30
CC1COCCN1c1cc(F)nc(N2CCc3nc(-c4ncccn4)ncc3C2C)c1 (centres unmarked) [Example 40, 4-[2-fluoro-6-(5-methyl-2-pyrimidin-2-yl-7,8-dihydro-5H-pyrido[4,3-d]pyrimidin-6-yl)-4-pyridyl]-3-methyl-morpholine] | 10

SMILES | IC50 [nM]
CC1c2cnc(-c3ncccn3)nc2CCN1c1cc(F)cc(N2CCCC2CO)n1 (centres unmarked) [Example 31, [1-[4-fluoro-6-(5-methyl-2-pyrimidin-2-yl-7,8-dihydro-5H-pyrido[4,3-d]pyrimidin-6-yl)-2-pyridyl]pyrrolidin-2-yl]methanol] | 14
CC1c2cnc(-c3ncccn3)nc2CCN1c1cc(N2CCN(S(C)(=O)=O)C(C)(C)C2)cc(F)n1 (centres unmarked) [Example 100, 6-[4-(3,3-dimethyl-4-methylsulfonyl-piperazin-1-yl)-6-fluoro-2-pyridyl]-5-methyl-2-pyrimidin-2-yl-7,8-dihydro-5H-pyrido[4,3-d]pyrimidine] | 13
CC1CCN(c2cc(F)cc(N3CCc4nc(-c5ncccn5)ncc4C3C)n2)C1 (centres unmarked) [Example 19, 6-[4-fluoro-6-(3-methylpyrrolidin-1-yl)-2-pyridyl]-5-methyl-2-pyrimidin-2-yl-7,8-dihydro-5H-pyrido[4,3-d]pyrimidine] | 11
CC1c2cnc(-c3ncccn3)nc2CCN1c1cc(F)cc(N2CCOC(C(=O)O)C2)n1 (centres unmarked) [Example 27, 4-[4-fluoro-6-(5-methyl-2-pyrimidin-2-yl-7,8-dihydro-5H-pyrido[4,3-d]pyrimidin-6-yl)-2-pyridyl]morpholine-2-carboxylic acid] | 3760
CC1c2cnc(-c3ncccn3)nc2CCN1c1cc(N2CCOC(CO)C2)cc(F)n1 (centres unmarked) [Example 24, [4-[2-fluoro-6-(5-methyl-2-pyrimidin-2-yl-7,8-dihydro-5H-pyrido[4,3-d]pyrimidin-6-yl)-4-pyridyl]morpholin-2-yl]methanol] | 38
CC1c2cnc(-c3ncccn3)nc2CCN1c1cc(F)cc(N2CCN(CCC(N)=O)CC2)n1 (centres unmarked) [Example 103, 3-[4-[4-fluoro-6-(5-methyl-2-pyrimidin-2-yl-7,8-dihydro-5H-pyrido[4,3-d]pyrimidin-6-yl)-2-pyridyl]piperazin-1-yl]propanamide] | 1350
CC1c2cnc(-c3ncccn3)nc2CCN1c1cc(F)cc(N2CCN(S(C)(=O)=O)CC2)n1 (centres unmarked) [Example 57, 6-[4-fluoro-6-(4-methylsulfonylpiperazin-1-yl)-2-pyridyl]-5-methyl-2-pyrimidin-2-yl-7,8-dihydro-5H-pyrido[4,3-d]pyrimidine] | 28
CC1c2cnc(-c3ncccn3)nc2CCN1c1cc(F)cc(N2CC(C(=O)O)C(C)(C)C2)n1 (centres unmarked) [Example 92, 1-[4-fluoro-6-(5-methyl-2-pyrimidin-2-yl-7,8-dihydro-5H-pyrido[4,3-d]pyrimidin-6-yl)-2-pyridyl]-4,4-dimethyl-pyrrolidine-3-carboxylic acid] | 139
CC1c2cnc(-c3ncccn3)nc2CCN1c1cc(F)nc(N2CC(F)(F)C2)c1 (centres unmarked) [Example 149, 6-[2-(3,3-Difluoroazetidin-1-yl)-6-fluoro-4-pyridyl]-5-methyl-2-pyrimidin-2-yl-7,8-dihydro-5H-pyrido[4,3-d]pyrimidine] | 20
CC1c2cnc(-c3ncccn3)nc2CCN1c1cc(N(C)S(=O)(=O)C2CC2)cc(F)n1 (centres unmarked) [Example 160, N-[2-fluoro-6-(5-methyl-2-pyrimidin-2-yl-7,8-dihydro-5H-pyrido[4,3-d]pyrimidin-6-yl)-4-pyridyl]-N-methyl-cyclopropanesulfonamide] | 6
CC(=O)N1CCN(c2cc(F)nc(N3CCc4nc(-c5ccccn5)ncc4C3C)c2)CC1 (centres unmarked) [Example 69, 1-[4-[2-fluoro-6-[5-methyl-2-(2-pyridyl)-7,8-dihydro-5H-pyrido[4,3-d]pyrimidin-6-yl]-4-pyridyl]piperazin-1-yl]ethanone] | 14
CC1c2cnc(-c3ncccn3)nc2CCN1c1cc(F)cc(N2CCN(CC(=O)O)CC2)n1 (centres unmarked) [Example 95, 2-[4-[4-fluoro-6-(5-methyl-2-pyrimidin-2-yl-7,8-dihydro-5H-pyrido[4,3-d]pyrimidin-6-yl)-2-pyridyl]piperazin-1-yl]acetic acid] | 3780
CC1c2cnc(-c3ncccn3)nc2CCN1c1cc(N2CC(C(=O)O)CC2=O)cc(F)n1 (centres unmarked) [Example 145, 1-[2-Fluoro-6-(5-methyl-2-pyrimidin-2-yl-7,8-dihydro-5H-pyrido[4,3-d]pyrimidin-6-yl)-4-pyridyl]-5-oxo-pyrrolidine-3-carboxylic acid] | 5340
CC1c2cnc(-c3ccccn3)nc2CCN1c1cc(N2CCCC(C(N)=O)C2)cc(F)n1 (centres unmarked) [Example 75, 1-[2-fluoro-6-[5-methyl-2-(2-pyridyl)-7,8-dihydro-5H-pyrido[4,3-d]pyrimidin-6-yl]-4-pyridyl]piperidine-3-carboxamide] | 39
CC1c2cnc(-c3ncccn3)nc2CCN1c1cc(F)nc(N2CC3(COC3)C2)c1 (centres unmarked) [Example 158, 6-[6-Fluoro-4-(5-methyl-2-pyrimidin-2-yl-7,8-dihydro-5H-pyrido[4,3-d]pyrimidin-6-yl)-2-pyridyl]-2-oxa-6-azaspiro[3.3]heptane] | 48

Source: patent US11104674B2 (Hoffmann-La Roche Inc., priority 2016, dated 2021)
